Assay results published in patent publication US20140243332A1, “METHODS OF TREATING CANCERS CHARACTERIZED BY ABERRENT ROS1 ACTIVITY” (Oregon Health & Science University, priority 2013, published 2014).
Where two headings read alike, the source gives them in different places.

Assays:
[1] = established, reported in the literature; read-out: steady state maximum plasma concentration Cmax; cited from earlier work
HCC78 cells [2] = experiment: Cell viability (MTS) assay, HCC78; assay type: cell-based, human; conditions: Homo sapiens, 72 hour exposure, read-out: IC50 HCC78 cell growth
Protocol: (§1) The parental Ba/F3 cell line was cultured in RPMI 1640 medium with 10% FBS, L-glutamine, penicillin/streptomycin and 15% WEHI-conditioned media. Ba/F3 cell lines were maintained at densities of 0.5×10^6 to 1.5×10^6 per ml of media. FIG-ROS and SLC-ROS Ba/F3 lines were created by infecting the parental Ba/F3 with retrovirus expressing either human FIG-ROS-S (indicated FIG-ROS herein) or SLC-ROS-S (indicated SLC-ROS herein). Stable transfectant lines were sorted for GFP expression on a FACS Aria® flow cytometer. Cells were counted daily using Guava ViaCount® reagent and Guava Personal Cell Analysis® flow cytometer. […] Early passage NIH3T3 cells were infected with retrovirus expressing either FIG-ROS or SLC-ROS and sorted for GFP expression as described above for Ba/F3 cells. HCC78 cells were cultured in RPMI 1640 medium with 10% FBS, L-glutamine, and penicillin/streptomycin. This media is referred to as RPMI-10% FBS herein.

Ba/F3 FIG-ROS cells = target: T1, Ba/F3 FIG-ROS cells (Homo sapiens, UniProt P08922); experiment: Cell viability (MTS) assay, Ba/F3 FIG-ROS; assay type: cell-based
T1 construct: fused on or other part: GFP is co-expressed from an IRES in pMIG and is not fused; Q9HD26 (Golgi-associated PDZ and coiled-coil motif-containing protein)
T1 sequence (P08922 whole entry, change not shown, the tested form may be a part): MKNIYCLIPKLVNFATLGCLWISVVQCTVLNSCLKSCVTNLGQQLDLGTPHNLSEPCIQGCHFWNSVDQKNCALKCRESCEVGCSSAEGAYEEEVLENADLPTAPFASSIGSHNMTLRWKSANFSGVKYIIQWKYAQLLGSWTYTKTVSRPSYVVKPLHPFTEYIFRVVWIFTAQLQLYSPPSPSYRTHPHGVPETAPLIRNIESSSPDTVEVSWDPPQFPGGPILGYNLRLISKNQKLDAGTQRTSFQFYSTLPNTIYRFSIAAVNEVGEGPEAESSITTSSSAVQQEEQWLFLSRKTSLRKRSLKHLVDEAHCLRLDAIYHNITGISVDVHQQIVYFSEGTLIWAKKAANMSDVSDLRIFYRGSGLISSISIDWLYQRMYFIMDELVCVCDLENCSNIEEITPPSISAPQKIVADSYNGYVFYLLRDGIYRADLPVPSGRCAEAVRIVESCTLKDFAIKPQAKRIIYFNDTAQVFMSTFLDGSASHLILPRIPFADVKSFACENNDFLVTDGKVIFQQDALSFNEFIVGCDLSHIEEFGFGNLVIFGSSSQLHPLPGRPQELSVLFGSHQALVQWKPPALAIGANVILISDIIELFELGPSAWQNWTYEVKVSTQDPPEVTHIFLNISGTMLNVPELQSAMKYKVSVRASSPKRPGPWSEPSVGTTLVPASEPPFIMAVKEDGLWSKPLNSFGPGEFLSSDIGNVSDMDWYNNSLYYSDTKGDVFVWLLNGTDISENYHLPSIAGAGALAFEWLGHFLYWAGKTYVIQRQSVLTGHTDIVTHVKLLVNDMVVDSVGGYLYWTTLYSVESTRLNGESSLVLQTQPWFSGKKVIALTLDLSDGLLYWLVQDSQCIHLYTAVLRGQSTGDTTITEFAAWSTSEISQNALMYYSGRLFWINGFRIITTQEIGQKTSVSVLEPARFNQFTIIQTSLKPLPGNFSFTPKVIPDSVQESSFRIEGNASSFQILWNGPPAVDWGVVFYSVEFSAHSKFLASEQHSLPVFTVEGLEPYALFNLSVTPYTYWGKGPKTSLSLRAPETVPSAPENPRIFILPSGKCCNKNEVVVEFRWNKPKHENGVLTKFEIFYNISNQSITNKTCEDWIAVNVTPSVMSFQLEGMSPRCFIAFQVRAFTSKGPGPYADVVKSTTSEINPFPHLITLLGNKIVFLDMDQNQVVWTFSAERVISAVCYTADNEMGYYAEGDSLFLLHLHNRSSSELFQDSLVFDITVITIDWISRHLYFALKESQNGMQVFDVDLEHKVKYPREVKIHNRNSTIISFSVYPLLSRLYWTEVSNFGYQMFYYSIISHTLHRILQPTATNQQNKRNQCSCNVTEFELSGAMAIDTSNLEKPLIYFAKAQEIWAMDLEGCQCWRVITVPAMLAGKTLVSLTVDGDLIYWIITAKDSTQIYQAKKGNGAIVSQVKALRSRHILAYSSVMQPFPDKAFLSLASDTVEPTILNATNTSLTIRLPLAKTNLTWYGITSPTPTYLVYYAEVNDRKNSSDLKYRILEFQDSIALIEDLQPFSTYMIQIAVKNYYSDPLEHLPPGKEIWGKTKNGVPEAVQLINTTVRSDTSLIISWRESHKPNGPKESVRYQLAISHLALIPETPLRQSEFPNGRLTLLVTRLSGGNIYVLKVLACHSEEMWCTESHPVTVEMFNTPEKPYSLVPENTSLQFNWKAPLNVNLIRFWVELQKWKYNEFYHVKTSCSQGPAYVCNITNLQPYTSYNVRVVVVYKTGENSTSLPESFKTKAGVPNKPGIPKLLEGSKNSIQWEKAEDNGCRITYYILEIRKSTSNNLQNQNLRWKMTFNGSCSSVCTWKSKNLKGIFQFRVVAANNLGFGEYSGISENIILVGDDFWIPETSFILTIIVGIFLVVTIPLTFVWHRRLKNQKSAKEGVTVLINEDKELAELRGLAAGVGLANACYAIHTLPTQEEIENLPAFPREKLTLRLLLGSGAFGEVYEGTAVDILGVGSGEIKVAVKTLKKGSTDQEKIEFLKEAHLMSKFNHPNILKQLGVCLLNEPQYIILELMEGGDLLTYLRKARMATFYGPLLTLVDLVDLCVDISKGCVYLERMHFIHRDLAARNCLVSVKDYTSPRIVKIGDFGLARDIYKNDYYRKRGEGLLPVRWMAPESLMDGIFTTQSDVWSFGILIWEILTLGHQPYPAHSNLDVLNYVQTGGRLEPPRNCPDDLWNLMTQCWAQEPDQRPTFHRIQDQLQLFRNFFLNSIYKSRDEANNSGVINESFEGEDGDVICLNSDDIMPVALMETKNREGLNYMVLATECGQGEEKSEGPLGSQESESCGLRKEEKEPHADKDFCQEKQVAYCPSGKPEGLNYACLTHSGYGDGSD
From the text: as §1, with “Ba/F3” for “The parental Ba/F3 cell line was cultured in RPMI 1640 medium with 10% FBS, L-glutamine, penicillin/streptomycin and 15% WEHI-conditioned media. Ba/F3”, “HCC78 cells were cultured in RPMI 1640 medium with 10% FBS, L-glutamine, and penicillin/streptomycin.” left out
The FIG-ROS-S (FIG-ROS) fusion protein has been reported in non-small cell lung cancers (NSCLC), glioblastomas, and cholangiocarcinomas.

HCC4011 cells = experiment: Cell viability assay, HCC4011; assay type: cell-based, human; conditions: HCC4011 cells (activated EGFR), FIG. 6B
Protocol: IC50 was determined from non-linear regression curve fit analysis of the dose response curves.

HCC78 cells [3] = experiment: HCC78 colony formation; assay type: cell-based, human; conditions: 10 days, FIG. 1F
From the text: FIG. 1F bottom panel is a bar graph depicting the number of colonies observed on the plates from FIG. 1F top panel. Where indicated, **=p<0.01 and ***=p<0.001 by Student's t-test.

[4] = target: Ba/F3 FIG-ROS L1947R cells (Homo sapiens, UniProt P08922, L1947R, cells depend on it); experiment: Cell viability assay, Ba/F3 FIG-ROS L1947R; assay type: cell-based; conditions: Table 3, Ba/F3 FIG-ROS L1947R; nM; read-out: IC50 (the source's name)
Sequence of Ba/F3 FIG-ROS L1947R cells (P08922 whole entry L1947R): as the sequence (P08922 whole entry, change not shown, the tested form may be a part) above, with L1947R counted along it
Protocol: (§2) Cell lines were distributed in 96-well plates and incubated with the indicated concentrations of inhibitor for 72 hours. […] Ba/F3 cell lines were plated at 4×10^3 cells/well. HCC78 and mCC cell lines were plated at 1.5×10^3 cells/well. All cell types were seeded in a final volume of 80 microliters. A 20 microliter volume of five-fold concentrated inhibitor media was added. Cell proliferation was measured using a […] viability assay (CellTiter96 Aqueous One® Solution; Promega). A BioTek Synergy 2® plate reader was used to read the absorbance at 490 nm at 30 minutes and 1 hour after addition of MTS. To facilitate comparison between experiments, the raw MTS absorbance of vehicle (0.1% DMSO) treated cells was set to 1 and absorbance from inhibitor treated wells was normalized to the vehicle treated value. […] Data were normalized using Microsoft Excel® and further non-linear regression curve fit analysis of the normalized data for determination of IC50 was performed using Graphpad Prism® software.
(§3) The FIG-ROS-S fusion gene was synthesized using the GeneArt® service. FIG-ROS-S is denoted as FIG-ROS herein.

[5] = target: Ba/F3 CD74-ROS G2032R mutant cells (Homo sapiens, UniProt P08922, G2032R, cells depend on it); experiment: Cell growth assay, Ba/F3 CD74-ROS G2032R; assay type: cell-based; conditions: 72 hour exposure, read-out: IC50 (the source's name)
Sequence of Ba/F3 CD74-ROS G2032R mutant cells (P08922 whole entry G2032R): as the sequence (P08922 whole entry, change not shown, the tested form may be a part) above, with G2032R counted along it
From the text: Data are shown as normalized to vehicle-treated cells. The values are means±SEM from three independent experiments performed in triplicate.

[6] = target: Ba/F3 FIG-ROS L1982F cells (Homo sapiens, UniProt P08922, L1982F, cells depend on it); experiment: Cell viability assay, Ba/F3 FIG-ROS L1982F; assay type: cell-based; conditions: Table 3, Ba/F3 FIG-ROS L1982F; nM; read-out: IC50 (the source's name)
Sequence of Ba/F3 FIG-ROS L1982F cells (P08922 whole entry L1982F): as the sequence (P08922 whole entry, change not shown, the tested form may be a part) above, with L1982F counted along it
Protocol: as §2, §3

[7] = system: FIG-ROS murine cholangiocarcinoma tumor cells; experiment: cells; conditions: Mus musculus, read-out: IC50 cell growth
Protocol: (§4) Hepatoblasts of the genotype AlbCre^+/−; Isl Kras^G12D+/−; p53^R172H/loxp were isolated from ED14.5 mouse embryos and retrovirally transduced with either the FIG-ROS fusion, turbo RFP or a short hairpin RNA against Pten (shPten.1522). At 48 hours following transduction, 1×10^6 cells were resuspended in 25 μl Matrigel and injected sub-capsular into the livers of immune-deficient mice. Upon tumor formation, tumors were explanted and subjected to collagenase digestion. Digests were plated onto gelatin-coated plates. Tumor cells were enriched by either differential trypsinization or cell sorting. […] These four cell lines were further cultured and maintained in DMEM-High glucose medium supplemented with 10% FCS, L-glutamine and penicillin/streptomycin.
as §2
(§5) To directly assess inhibition of FIG-ROS phosphorylation, immunoblot analyses of lysates from vehicle or inhibitor-treated cells were performed.

[8] = system: shPten murine cholangiocarcinoma tumor cells; experiment: cells; conditions: Mus musculus, read-out: IC50 cell growth
Protocol: as §4, §2, §5

[9] = system: FIG-ROS cholangiocarcinoma tumor cells; experiment: Anchorage-independent colony formation in soft agar, FIG-ROS cholangiocarcinoma cells; assay type: cell-based, murine; conditions: dose dependent
From the text: […]. The values indicate the mean and the error bars indicate the standard error of the mean of 3 independent wells.
. The inhibition was dose dependent (FIG. 2B). […].

## COc1cc2c(Oc3ccc(NC(=O)C4(C(=O)Nc5ccc(F)cc5)CC4)cc3F)ccnc2cc1OCCCN1CCOCC1 [foretinib, N1′-[3-fluoro-4-[[6-methoxy-7-(3-morpholinopropoxy)-4-quinolyl]oxy]phenyl]-N1-(4-fluorophenyl)cyclopropane-1,1-dicarboxamide]
[1]
  Cmax: 340 nM
HCC78 cells [2]
  IC50: 425 nM
Ba/F3 FIG-ROS cells; Table 3, mutant: None (Ba/F3 FIG-ROS), nM, read-out: IC50 (the source's name)
  GI50: 2.03 nM
Ba/F3 FIG-ROS cells; read-out: IC50 (50% growth inhibitory concentration), Ba/F3 FIG-ROS cells, 72 hours, MTS
  GI50: 2 nM
Ba/F3 FIG-ROS cells; read-out: IC50 (50% growth inhibitory concentration), Ba/F3 FIG-ROS cells, 72 hours, MTS, listed as Foretinib
  GI50: 2.2 nM
HCC4011 cells
  sensitivity of cell growth: relatively insensitive
HCC78 cells [3]
  HCC78 colony formation: more potently inhibited by foretinib than crizotinib
[4]
  GI50: 17.9 nM
[5]
  GI50: 50 nM
[6]
  GI50: 15.3 nM
[7]
  IC50: 300 nM
[8]
  IC50: > 2000 nM
[9]
  anchorage-independent colonies in soft agar: inhibited
